Measured values taken from PMC7696938, “Cinnamides Target Leishmania amazonensis Arginase Selectively” (Molecules, 2020).
Values joined by “and” are separate entries in the source; they are usually repeats but may differ in a detail not shown here. Equal values may be shown once. Read-outs that look alike come from different tables or passages of the source.

Assays:
[1] = target: T1, Leishmania amazonensis recombinant arginase (L-ARG) (Leishmania amazonensis, UniProt O96394); test: Determination of Ki, Kis and mechanism of inhibition of L-ARG (Dixon and Cornish-Bowden plots); type: biochemical; settings: for Mode of Inhibition: L-ARG; for Ki / Kis: L-arginine 25, 50, 100 mM, pH 9.5
Method: All reactions were performed in 50 mM CHES buffer, pH 9.5, containing variable concentrations of the substrate L-arginine (25, 50, and 100 mM) at pH 9.5. Inhibitors were tested at three different concentrations close to the IC50. All reactions were performed in triplicate in two independent experiments. Urea was quantified according to the Berthelot method using commercial reagents as previously described. The constant Ki was determined for competitive and mixed inhibitors, and Ki’ was determined uncompetitive and mixed using a Dixon and Cornish–Bowden plots. For non-competitive inhibitors, Ki and K’i values were the same, and y = 0 was determined to obtain that value.

[2] = test system: Leishmania amazonensis recombinant arginase (L-ARG); test: Arginase inhibition test, recombinant L-ARG (urea, Berthelot method); type: biochemical; design: Emax: dose or concentration left out as unconfirmed; settings: for Selective Index: L-ARG over B-ARG (bovine IC50 vs L. amazonensis IC50)
Method: (§1) Recombinant L-ARG was expressed and purified as previously described. Briefly, Escherichia coli, containing arginase gene cloned in plasmid DNA, was grown in SOB (Super Optimal Broth) medium at 37 °C until it reached absorbance 0.6 at 600 nm. Then the recombinant L-ARG expression was induced with a final concentration of IPTG (isopropyl β-D-1-thiogalactopyranoside) 1 mM and MnSO4 10 mM for 3 h. The cells were harvested and lysed in 1 mL of buffer A (MOPS 100 mM, pH 7,2, NaCl 500 mM) containing PMSF (phenylmethanesulfonyl fluoride) 1 mM and 10% of CelLytic™ B. After lysis, the homogenate was centrifuged at 12,000× g for 10 min. Arginase in the supernatant was purified as previously described.
(§2) A stock solution (70 mM) was prepared in DMSO and stored at −20 °C for each compound just before the experiment. The inhibitory test was performed with 50 mM of L-arginine (pH 9.5), 50 mM CHES buffer (pH 9.5), and enzyme at 5 nM. The sample was incubated in a water bath at 37 °C for 15 min. Urea was quantified according to the Berthelot method, using commercial reagents. Briefly, the catalytic activity of the arginase reaction was stopped by transferring 2 μL of the reaction mixture into 150 μL of reagent I (20 mM phosphate buffer, pH 7, containing 60 mM Salicylate, 1 mM sodium nitroprusside, and >500 IU of urease). This mixture was incubated at 37 °C for 5 min. Next, 150 μL of reagent II (sodium hypochlorite 10 mM and NaOH 150 mM) was added, and the samples were incubated at 37 °C for 5 min. Measurement was taken at 600 nm using an Epoch 2 microplate reader (BioTek Instruments, Inc.). Two independent experiments were performed in triplicate until a coefficient of non-linear regression R^2 ≥ 0.95 was obtained. The sigmoidal model (log IC50) was used to determine IC50 and maximum effect (Emax) in GraphPad-Prism 6.01 software for Windows (San Diego, CA, USA).

[3] = target: T1, Leishmania amazonensis recombinant arginase (L-ARG); test: as above; type: biochemical; design: Emax: dose or concentration left out as unconfirmed
Method: as §1, §2

[4] = target: bovine arginase (B-ARG); design: method as in PMID 27690022; settings: cited from earlier work
[5] = target: T1, Leishmania amazonensis recombinant arginase (L-ARG); design: method as in PMID 30216691; settings: Table 2, unit inferred; read-out: IC50 inhibition of arginase, L. amazonensis; cited from earlier work
[6] = target: human arginase (h-ARG); design: method as in PMID 27690022; settings: cited from earlier work
[7] = test system: L. amazonensis promastigotes; test: Promastigote growth inhibition (MTT); type: cell-based; settings: Leishmania amazonensis, 78 h
Method: Promastigote forms of the strain MHO were inoculated initially in the concentration of 5 × 10^5 parasites/mL in M199 medium (Life Technologie, Carlsbad, CA, USA), pH 7.4, supplemented with 10% of fetal bovine serum, (50 µg/mL) streptomycin, and (100 U) penicillin at 24 °C. Cells were grown until they reached the stationary phase. After this, 998 μL of the culture at 5.0 × 10^5 cells/mL was incubated with 2 μL of the inhibitors (50 to 0.0005 mM) dissolved in DMSO to obtain final concentrations of 100 to 0.001 μM. Amphotericin B was used as a control of the cell growth inhibition, in a concentration varying from 60 to 0.0006 μM dissolved in DMSO. […] After this inhibition period, the surviving cells were washed twice with HBSS (Gibco), centrifuged at 2000× g for 10 min, and supernatant was removed. To verify the parasite viability, over the pellet of cells about 1000 µL of M199 medium content was added, with 5 mg/mL of MTT (3-(4,5-dimethylthiazol-2-yl)-2, 5-diphenyltetrazolium bromide, a tetrazole) (Sigma-Aldrich, St. Louis, MO, USA). Surviving parasites were exposed to MTT during 12 h at 34 °C in a CO2 chamber. After this period, the cells were centrifuged for 10 min at 2000× g and the supernatant was removed. Formazan crystals that were formed in the cells were dissolved with DMSO, the absorbance was read using an Epoch 2 Microplate Spectrophotometer at 600 nm.

[8] = 50 mM L-arginine, pH 9.5, 37 °C, 15 min, read-out: IC50 (half inhibitory activity), L-ARG
[9] = Table 2, unit inferred, read-out: IC50 inhibition of arginase, L. amazonensis
[10] = read-out: Emax (maximal inhibitory activity)
[11] = Table 2, unit inferred, read-out: IC50 inhibition of arginase, Bovine

Row | Structure (SMILES) | Mode of Inhibition [1] | Ki [1] | Kis [1] | Selective Index [2] | IC50 [3, 8] | IC50 [3, 9] | Emax at 100 µM [3, 10] | IC50 [7] | potency against L-ARG relative to human arginase ([2]; L-ARG IC50 vs human arginase IC50) | Emax [3, 10] | IC50 [4, 11] | IC50 [5] | IC50 [6] | mode of inhibition of bovine arginase [4] | IC50 ([4]; read-out: IC50, bovine arginase)
1 | COC(=O)C(Cc1ccc(O)c(O)c1)NC(=O)/C=C/c1ccc(O)c(O)c1 (centres unmarked) [Compound 18] | Mixed | 3.9 ± 0.4 µM | 27 ± 8 µM | 10 | 4 ± 1 µM | 4 ± 1 µM | 89 ± 3% |  |  |  | 41.9 ± 1.3 µM |  |  |  | 
2 | O=C(O)/C=C/c1ccc(O)c(O)c1 [Caffeic acid, reference compound] |  |  |  | 58 |  |  |  |  |  |  | 86.7 ± 8 µM | 1.5 ± 0.3 µM |  |  | 
3 | O=C(/C=C/c1ccc(O)c(O)c1)O[C@@H]1C[C@](O)(C(=O)O)C[C@@H](O)[C@H]1O [Chlorogenic acid, reference compound] |  |  |  | 1.3 |  |  |  |  |  |  | 10.6 ± 1.6 µM |  |  |  | ~10 µM
4 | O=C(NCCc1ccc(O)cc1)c1ccc(O)c(O)c1 [Compound 17] | Competitive | 11.4 ± 0.7 µM |  | 10 | 17.8 µM and 18 µM | 18 ± 3 µM | 68 ± 2% |  |  |  | 175.3 ± 1.5 µM |  |  |  | 
5 | COc1cc(/C=C/C(=O)NCCc2ccc(O)c(O)c2)cc(OC)c1OC [Compound 14] | Competitive | 1.2 ± 0.3 µM |  | 81 | 2.4 ± 0.9 µM | 2.4 ± 0.9 µM | 81 ± 2% |  |  |  | 193.6 ± 1.4 µM |  |  |  | 
6 | COc1cc(/C=C/C(=O)NCCc2ccc(O)c(O)c2)ccc1O [Compound 12] | Noncompetitive | 9.6 ± 0.7 µM | 9.6 ± 0.7 µM | 31 | 6.5 ± 1.4 µM | 6.5 ± 1.4 µM | 75 ± 2% |  |  |  | 198.7 ± 1.4 µM |  |  |  | 
7 | COC(=O)C(CS)NC(=O)/C=C/c1ccc(O)c(O)c1 (centres unmarked) [Compound 19] | Mixed | 6.6 ± 0.3 µM | 28 ± 4 µM | 4 | 9 ± 1 µM | 9 ± 1 µM | 90 ± 3% |  |  |  | 37 ± 1.3 µM |  |  |  | 
8 | O=C(/C=C/c1ccccc1)NCCc1ccc(O)c(O)c1 [Compound 15] | Mixed | 1.4 ± 0.2 µM | 5 ± 1 µM | 30 |  | 1.3 ± 0.1 µM |  |  |  | 80 ± 1% | 39.3 ± 1.4 µM |  |  |  | 

Second part, led by results:

Row | Mode of Inhibition [1] | Ki [1] | Kis [1] | Selective Index [2] | IC50 [3, 8] | IC50 [3, 9] | Emax at 100 µM [3, 10] | IC50 [7] | potency against L-ARG relative to human arginase ([2]; L-ARG IC50 vs human arginase IC50) | Emax [3, 10] | Structure (SMILES) | IC50 [4, 11] | IC50 [5] | IC50 [6] | mode of inhibition of bovine arginase [4] | IC50 ([4]; read-out: IC50, bovine arginase)
9 | Competitive | 3.9 ± 1 µM |  | 1 | 6.9 ± 0.7 µM | 6.9 ± 0.7 µM | 79 ± 1% | 82.6 µM | 9 fold |  | O=C(/C=C/c1ccc(O)c(O)c1)NCCc1ccccc1 [CAPA, caffeic acid phenethyl amide] | 6.9 ± 1.3 µM |  | 60.3 µM and 60 µM | competitive inhibition | 
10 | Competitive | 4.4 ± 1.1 µM |  | 4 | 5.6 ± 0.4 µM | 5.6 ± 0.4 µM | 82 ± 2% |  |  |  | O=C(/C=C/c1ccc(O)c(O)c1)NCCc1ccc(O)cc1 [Compound 6] | 22.1 ± 1.6 µM |  |  |  | 
11 | Competitive | 1.6 ± 0.2 µM |  | 68 | 2.5 ± 0.2 µM | 2.5 ± 0.2 µM | 82 ± 1% |  |  |  | O=C(/C=C/c1ccc(O)cc1)NCCc1ccc(O)c(O)c1 [Compound 13] | 170.4 ± 1.7 µM |  |  |  | 
12 | Uncompetitive |  | 2.5 ± 0.2 µM | 64 | 1.8 ± 0.1 µM | 1.8 ± 0.1 µM | 81 ± 2% |  |  |  | O=C(/C=C/c1ccc(O)c(O)c1)NCCc1ccc(O)c(O)c1 [Compound 11] | 115 ± 1.3 µM |  |  |  | 
